By viability is commonly meant a read-out of living cells in per cent, often relative to untreated cells.

Structures are written as SMILES.

Experimental findings from paper PMC12040169 (PLOS Biology, 2025) are described below.

The series can be described thus: in vitro. The settings on record: human, hela cells, % viability.

Take `COc1ccc(C2(C(=O)N3CCN(C)CC3)CC2)cc1` [CBK149837]: the viability at 28.5 h, 10 µM amounted to 86.3%.

For the compound `COc1ccc(C2(C(=O)N[C@H]3CC[C@H](O)CC3)CC2)cc1` [CBK149840], the viability at 28.5 h, 10 µM came out at 111%.

In the case of `O=C(Nc1cccc(C(F)(F)F)c1)N1CCC(n2c(=O)[nH]c3ccccc32)CC1` [CBK149845], the viability at 28.5 h, 10 µM was found to be 84.6%.

`O=C(Nc1cccc2ccccc12)N1CCC(n2c(=O)[nH]c3ccccc32)CC1` [CBK149858]: the viability at 28.5 h, 10 µM was 85%.

Turning to `O=C(Oc1ccccc1)N1CCC(n2c(=O)[nH]c3ccccc32)CC1` [CBK149865], the viability at 28.5 h, 10 µM worked out at 89%.

Turning to `O=C(Nc1sc2c(c1C(=O)O)CCC2)c1ccco1` [CBK152436], the viability at 28.5 h, 10 µM worked out at 101%.

On to `O=C(Nc1ccsc1C(=O)O)c1ccccc1Cl` [CBK152440], for which the viability at 28.5 h, 10 µM is 98.4%.

Turning to `CNC(=O)C1CCN(Cc2ccc(-c3nnn(CC(=O)NCc4ccc(C)cc4)n3)cc2)CC1` [CBK153195T], the viability at 28.5 h, 10 µM was 96.1%.

On to `O=C(NCc1cccnc1)c1ccc(N2CCN(C(=O)c3ccccc3C(F)(F)F)CC2)nn1` [CBK153215], for which the viability at 28.5 h, 10 µM is 72.3%.

For the compound `O=C(NCCN1CCCC1)c1ccc(N2CCN(C(=O)c3ccccc3C(F)(F)F)CC2)nn1` [CBK153217], the viability at 28.5 h, 10 µM amounted to 105%.

`O=C(NCc1cccs1)c1ccc(N2CCN(C(=O)c3ccccc3C(F)(F)F)CC2)nn1` [CBK153218]: the viability at 28.5 h, 10 µM stood at 87.6%.

`CC(C)CCNC(=O)c1ccc(N2CCN(C(=O)c3ccccc3C(F)(F)F)CC2)nn1` [CBK153222]: the viability at 28.5 h, 10 µM turned out to be 114%.

Consider `O=C(c1cscn1)N1CCC2(CCCNC2)C1` (stereo not drawn) [CBK153230C], for which the viability at 28.5 h, 10 µM stood at 97%.

With `Cc1cn(CC(=O)N2CCC3(CCCNC3)C2)c(=O)[nH]c1=O` (stereo not drawn) [CBK153231C], the viability at 28.5 h, 10 µM amounted to 95.9%.

`O=C(c1ccco1)N1CCC2(CCCNC2)C1` (stereo not drawn) [CBK153233C]: the viability at 28.5 h, 10 µM stood at 93.8%.

Regarding `O=C(CC1CC1)Nc1snnc1-c1ccc(Cl)cc1` [CBK153239], the viability at 28.5 h, 10 µM worked out at 97%.

As for `O=C(Nc1snnc1-c1ccc(Cl)cc1)c1ccco1` [CBK153242], the viability at 28.5 h, 10 µM was found to be 102%.

As for `O=C(Cc1ccsc1)Nc1snnc1-c1ccc(Cl)cc1` [CBK153243], the viability at 28.5 h, 10 µM came to 94.5%.

On to `O=C(Nc1snnc1-c1ccc(Cl)cc1)c1cccc(C(F)(F)F)c1` [CBK153246], for which the viability at 28.5 h, 10 µM turned out to be 72.5%.

For `CCc1c(C)nc2ccccc2c1SCC(=O)O` [CBK153279], the viability at 28.5 h, 10 µM was 83.9%.

As to `Cc1cc(CNC(=O)C2=CC(=O)CC(C)(C)O2)no1` [CBK153281], the viability at 28.5 h, 10 µM turned out to be 104%.

On to `Cc1cc(Cl)ccc1CNC(=O)C1=CC(=O)CC(C)(C)O1` [CBK153282], for which the viability at 28.5 h, 10 µM was determined as 97.5%.

Take `CC1(C)CC(=O)C=C(C(=O)NCc2ccc3c(c2)OCO3)O1` [CBK153290]: the viability at 28.5 h, 10 µM came to 98.3%.

Consider `CN(C)CC(C)(C)CNC(=O)C1=CC(=O)CC(C)(C)O1` [CBK153291], for which the viability at 28.5 h, 10 µM stood at 103%.

With `CC1(C)CC(=O)C=C(C(=O)NCc2cccs2)O1` [CBK153292], the viability at 28.5 h, 10 µM is 97.5%.

As for `O=C(NCCN1CCCC1)c1ccc2nc[nH]c2c1` [CBK153311], the viability at 28.5 h, 10 µM was 86%.

`Cc1cnc(CNC(=O)c2ccc3nc[nH]c3c2)cn1` [CBK153318]: the viability at 28.5 h, 10 µM was found to be 88.4%.

With `O=C(NCCc1ccc(O)cc1)c1ccc2nc[nH]c2c1` [CBK153323], the viability at 28.5 h, 10 µM was determined as 106%.

In the case of `N#Cc1ccc(CNC(=O)c2ccc3nc[nH]c3c2)cc1` [CBK153332], the viability at 28.5 h, 10 µM was found to be 95.1%.

With `CCOC(=O)CCSc1c(CC)c(C)nc2ccccc12` [CBK153457T], the viability at 28.5 h, 10 µM amounted to 93.5%.

`O=S(=O)(Nc1ccc2[nH]ccc2c1)c1ccc(Br)cc1F` [CBK153510]: the viability at 28.5 h, 10 µM came to 88.9%.

`O=S(=O)(Cc1ccc(Cl)cc1)Nc1cccc2[nH]ccc12` [CBK153531]: the viability at 28.5 h, 10 µM came to 99.5%.

As to `O=S(=O)(Nc1cccc2[nH]ccc12)c1ccc(F)cc1F` [CBK153546], the viability at 28.5 h, 10 µM stood at 62.2%.

Take `O=S(=O)(Nc1cccc2[nH]ccc12)c1ccc(Br)cc1F` [CBK153547]: the viability at 28.5 h, 10 µM was 80.6%.

Turning to `N#CCCCN1CCC(Oc2nccnc2OCc2cccc(Br)c2)CC1` [CBK153631], the viability at 28.5 h, 10 µM is 99.1%.

As to `N#CCCCN1CCC(Oc2nccnc2OCc2cc(Cl)cc(Cl)c2)CC1` [CBK153634], the viability at 28.5 h, 10 µM worked out at 93.9%.

In the case of `N#CCCCN1CCC(Oc2nccnc2OCc2cccc(Cl)c2)CC1` [CBK153642], the viability at 28.5 h, 10 µM worked out at 90.6%.

With `N#CCCCN1CCC(Oc2nccnc2OCc2ccc(F)cc2)CC1` [CBK153643], the viability at 28.5 h, 10 µM is 115%.

`N#CCCCN1CCC(Oc2nccnc2OCc2ccc(Br)cc2F)CC1` [CBK153647]: the viability at 28.5 h, 10 µM turned out to be 94.7%.

Consider `Cc1cccc(C)c1N(C1CCNCC1)S(=O)(=O)c1ccc2c(c1)CCO2` [CBK153668T], for which the viability at 28.5 h, 10 µM is 99.1%.

In the case of `Cc1ccc(-c2oncc2C(=O)NCc2cccs2)cc1` [CBK153679], the viability at 28.5 h, 10 µM was found to be 95.7%.

Regarding `CCN(CC)C(=O)c1cnoc1-c1ccc(Br)cc1` [CBK153725], the viability at 28.5 h, 10 µM was determined as 94.4%.

In the case of `COc1ccc(CCNC(=O)c2cnoc2-c2ccc(C)cc2)cc1` [CBK153731], the viability at 28.5 h, 10 µM was 119%.

Turning to `CS(=O)(=O)c1ccc(Cn2ccnc(N3CCN(C(=O)C4CCCCC4)CC3)c2=O)cc1` [CBK153771], the viability at 28.5 h, 10 µM worked out at 90.3%.

Regarding `O=c1cc(CN2CCC(Oc3nccnc3OCc3ccc(Cl)c(Cl)c3)CC2)[nH]c(=O)[nH]1` [CBK153784], the viability at 28.5 h, 10 µM was 96.6%.

As to `CC(C)NC(=O)CN1CCC(Oc2nccnc2OCc2ccc(Cl)c(Cl)c2)CC1` [CBK153791], the viability at 28.5 h, 10 µM is 92.2%.

Consider `O=C(c1cnoc1-c1ccc([N+](=O)[O-])cc1)N1CCCC1` [CBK153846], for which the viability at 28.5 h, 10 µM is 107%.

In the case of `CCc1ccc(CNC(=O)Cn2nnnc2-c2ccc(CN3CCC(C)CC3)cn2)cc1` [CBK153930C], the viability at 28.5 h, 10 µM was determined as 85.6%.

With `O=S(=O)(Nc1ccc(-c2nnn[nH]2)cc1)c1c(F)cccc1F` [CBK154734], the viability at 28.5 h, 10 µM came to 92.2%.

As to `CCNC(=S)N1CCN(C(=O)c2cccc(OC)c2)CC1` [CBK154778], the viability at 28.5 h, 10 µM came to 97.3%.

With `CCOC(=O)C1CCCN(S(=O)(=O)c2sc3ccc(Cl)cc3c2C)C1` (stereo not drawn) [CBK154797], the viability at 28.5 h, 10 µM worked out at 97.2%.

`Clc1cncc(-c2cc3ccccc3[nH]2)n1` [CBK154865]: the viability at 28.5 h, 10 µM was 101%.

In the case of `O=S(=O)(c1ccccc1)c1nc(N2CCNCC2)cn2ccnc12` [CBK154875T], the viability at 28.5 h, 10 µM was determined as 94.7%.

Turning to `COc1cc(CNC(=O)c2cnoc2-c2ccc(Br)cc2)cc(OC)c1OC` [CBK154893], the viability at 28.5 h, 10 µM came to 110%.

For the compound `Cc1ccc(CNC(=O)c2cnoc2-c2ccc(Br)cc2)cc1F` [CBK154896], the viability at 28.5 h, 10 µM came to 93.8%.

With `Cc1ccc(-c2oncc2C(=O)NCc2ccc(S(N)(=O)=O)cc2)cc1` [CBK154912], the viability at 28.5 h, 10 µM came out at 102%.

`O=C(NC1CC1)c1cnoc1-c1ccccc1` [CBK154935]: the viability at 28.5 h, 10 µM was determined as 106%.

`O=C(NCc1ccc(Cl)c(Cl)c1)c1cnoc1-c1ccccc1Cl` [CBK154942]: the viability at 28.5 h, 10 µM stood at 98.4%.

With `O=C(OCc1ccccc1)N1CCN(C(=O)c2cc3cc(Br)ccc3[nH]2)CC1` [CBK154991], the viability at 28.5 h, 10 µM was 97.5%.

`CCc1ccc(CNC(=O)Cn2nnc(-c3ccc(CNC4CCC4)cc3)n2)cc1` [CBK155006T]: the viability at 28.5 h, 10 µM amounted to 111%.

As for `CCc1ccc(CNC(=O)Cn2nnc(-c3ccc(CNCCc4ccc(OC)c(OC)c4)cc3)n2)cc1` [CBK155008T], the viability at 28.5 h, 10 µM was found to be 77.2%.

In the case of `CS(=O)(=O)c1ccc(CN2C(=O)CC3(CCN(C(=O)c4ccc([N+](=O)[O-])cc4)CC3)C2=O)cc1` [CBK155019], the viability at 28.5 h, 10 µM came out at 99%.

In the case of `COc1cccc(C(=O)N2CCC(NC(=O)c3ccc(C(F)(F)F)cc3)CC2)c1` [CBK155022], the viability at 28.5 h, 10 µM was determined as 104%.

Regarding `COc1cccc(C(=O)N2CCC(NC(=O)c3ccccc3C(F)(F)F)CC2)c1` [CBK155024], the viability at 28.5 h, 10 µM was found to be 99.4%.

Consider `COc1cccc(C(=O)N2CCC(NC(=O)c3cc(F)ccc3F)CC2)c1` [CBK155026], for which the viability at 28.5 h, 10 µM stood at 99.4%.

`COc1cccc(C(=O)N2CCC(NC(=O)c3csc(-c4ccccc4)n3)CC2)c1` [CBK155030]: the viability at 28.5 h, 10 µM was 90.4%.

Consider `CN(C)C(=O)c1ccc(-c2ccc(OC3CCN(C(=O)CCc4cccnc4)CC3)nc2)cc1` [CBK155049], for which the viability at 28.5 h, 10 µM was 93.3%.

Consider `O=C(O)c1cccc(NS(=O)(=O)c2ccc(F)cc2F)c1` [CBK155084], for which the viability at 28.5 h, 10 µM was found to be 95.4%.

In the case of `CN(C)CCN(Cc1ccccc1)C(=O)NCc1ccc(C#N)cc1` [CBK155097], the viability at 28.5 h, 10 µM worked out at 89.2%.

With `CN(C)CCN(Cc1ccccc1)C(=O)NCc1ccc(Cl)cc1` [CBK155106], the viability at 28.5 h, 10 µM is 94.2%.

As to `CCOC(=O)N1CCC(NC(=O)N(CCN(C)C)Cc2ccccc2)CC1` [CBK155121], the viability at 28.5 h, 10 µM is 109%.

For the compound `CCN(Cc1ccncc1)C(=O)NCc1cc(C)on1` [CBK155122], the viability at 28.5 h, 10 µM is 85.2%.

As for `CCN(Cc1ccncc1)C(=O)NCCCN1CCN(C)CC1` [CBK155123], the viability at 28.5 h, 10 µM was 108%.

Consider `CCN(Cc1ccncc1)C(=O)NCC1CCCCC1` [CBK155132], for which the viability at 28.5 h, 10 µM was 103%.

Take `CCN(Cc1ccncc1)C(=O)Nc1ccc2[nH]ccc2c1` [CBK155136]: the viability at 28.5 h, 10 µM was determined as 99.5%.

With `CCN(Cc1ccncc1)C(=O)NCc1c(Cl)cccc1Cl` [CBK155144], the viability at 28.5 h, 10 µM is 107%.

Take `CCN(Cc1ccncc1)C(=O)NCc1ccc(F)cc1` [CBK155146]: the viability at 28.5 h, 10 µM was found to be 96.4%.

In the case of `CCN(CC)CCNC(=O)N(CC)Cc1ccncc1` [CBK155151], the viability at 28.5 h, 10 µM was 105%.

On to `CCN(Cc1ccncc1)C(=O)NC(C)c1ccccc1` (stereo not drawn) [CBK155156], for which the viability at 28.5 h, 10 µM amounted to 101%.

For the compound `Cc1cnc(CNC(=O)N2CCc3ccccc3C2)cn1` [CBK155166], the viability at 28.5 h, 10 µM was 97.3%.

Take `CSCCCNC(=O)N1CCN(c2ccccc2)CC1` [CBK155170]: the viability at 28.5 h, 10 µM turned out to be 96.5%.
